{
  "source": "ChEMBL document CHEMBL3886228",
  "about": "“Substituted benzopiperazines as CETP inhibitors” (2015)",
  "data": [
    {"target": "T1, Cholesteryl ester transfer protein (Homo sapiens, UniProt P11597)", "T1 sequence (P11597 whole entry)": "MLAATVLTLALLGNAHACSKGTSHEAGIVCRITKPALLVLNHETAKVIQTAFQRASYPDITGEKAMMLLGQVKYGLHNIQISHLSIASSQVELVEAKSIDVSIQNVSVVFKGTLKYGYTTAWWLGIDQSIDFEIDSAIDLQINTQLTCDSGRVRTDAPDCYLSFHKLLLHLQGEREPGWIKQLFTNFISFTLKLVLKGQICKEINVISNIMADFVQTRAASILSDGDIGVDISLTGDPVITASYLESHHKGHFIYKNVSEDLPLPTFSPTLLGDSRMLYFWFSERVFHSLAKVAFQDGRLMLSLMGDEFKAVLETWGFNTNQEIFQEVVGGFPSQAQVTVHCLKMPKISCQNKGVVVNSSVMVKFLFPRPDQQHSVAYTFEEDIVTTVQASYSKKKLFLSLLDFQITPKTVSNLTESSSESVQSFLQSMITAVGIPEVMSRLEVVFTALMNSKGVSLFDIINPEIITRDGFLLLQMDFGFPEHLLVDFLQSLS", "experiment": "Scintillation Proximity Assay (SPA): First, low density lipoprotein (LDL) (Meridian) was biotinylated by incubating LDL with biotin for 1 hour on ice, after which it was dialyzed to remove free biotin. Then compounds at varying concentrations were incubated with 15 nM CETP (reagent production group, In Vitro Pharmacology, MRL Rahway) and 50 ug/ml of the biotinylated LDL in 50 mM HEPES, 150 mM NaCl, pH 7.4, for 1 hour at 37° C. The reaction was started by adding 3H-cholesterol ester high density lipoprotein (HDL) (American Radiochemicals Corp) at a concentration of ~0.6 nM. The reaction proceeded for 2 hours at 37° C., after which time it was quenched by the addition of 12% acetic acid. PVT streptavadin-coated scintillation proximity beads, which had been brought to room temperature, were then added at a concentration of 4 mg/ml. The assay was then mixed and counted after one half hour in a Microbeta plate reader.", "units": {"IC50": "nM"}, "values": [
      {"smiles": "COc1cccc(CN2C[C@@H](c3cccc(C(F)(F)F)c3)N(C[C@@H](O)C(F)(F)F)c3ccccc32)n1", "IC50": 630},
      {"smiles": "O[C@H](CN1c2ccccc2N(Cc2cccc(OC(F)(F)F)c2)C[C@H]1c1cccc2ccccc12)C(F)(F)F", "IC50": 1430},
      {"smiles": "CC(C)Oc1cccc(CN2C[C@@H](c3cccc(C(F)(F)F)c3)N(C[C@@H](O)C(F)(F)F)c3ccccc32)n1", "IC50": 750},
      {"smiles": "CCOc1cccc(CN2C[C@@H](c3cccc(C(F)(F)F)c3)N(C[C@@H](O)C(F)(F)F)c3ccccc32)n1", "IC50": 310},
      {"smiles": "COc1cccnc1CN1C[C@@H](c2cccc(C(F)(F)F)c2)N(C[C@@H](O)C(F)(F)F)c2ccccc21", "IC50": 210},
      {"smiles": "Cc1cc(CN2C[C@@H](c3cccc(C(F)(F)F)c3)N(C[C@@H](O)C(F)(F)F)c3ccccc32)cc(Cl)n1", "IC50": 67}
    ]}
  ]
}
